Laboratory results as given in patent publication US20250255889A1, “METHODS FOR TREATMENT SELECTION FOR CHRONIC LYMPHOCYTIC LEUKEMIA (CLL)” (The Broad Institute, Inc., priority 2022, published 2025).

System: primary CLL samples (CD19+ and CD5+ cells)
Experiment: High-throughput dynamic BH3 profiling (HT-DBP): drug-induced apoptotic priming (delta priming), cytochrome c release after BH3 peptide
Type: cell-based, human
Experimental: By “delta priming” is meant the difference in priming of a cell for apoptosis measured in the presence of an agent for treating chronic lymphocytic leukemia relative to priming of the cell in the presence of an inert carrier. In embodiments, the inert carrier is DMSO.
Dynamic BH3 Profiling Dynamic BH3 profiling (DBP) is a drug screening assay that measures the relative priming of cells in a biological sample for cell death by apoptosis in the presence of a specific compound and/or a pro-apoptotic peptide. By “Dynamic BH3 profiling” is meant measuring drug-induced changes in mitochondrial apoptotic priming. Mitochondrial apoptotic priming is a measure of how close to the apoptotic threshold a cell is. A highly primed cell has relatively less anti-apoptotic binding site availability and is closer to the apoptotic threshold than a poorly primed cell, which has more anti-apoptotic availability to buffer an apoptotic assault and is further from the apoptotic threshold. BH3 peptides derived from the BH3 domain of pro-apoptotic BH3-only proteins provoke a response from viable mitochondria. Cytochrome c released from the mitochondria after a short incubation with BH3 peptide is used as a surrogate for priming. In general, the more sensitive a mitochondrion is to a BH3 peptide, the more primed it is. A drug treatment that enhances priming will cause mitochondria to undergo MOMP more easily when incubated with a fixed concentration of a promiscuously binding BH3 peptide, such as BIM BH3 peptide, compared to control-treated cells. See, for example, Potter, D. S. & Letai, A. To prime, or not to prime: that is the question. Cold Spring Harb. Symp. Quant. Biol. 81, 131-140 (2016); Montero, J. et al. Drug-induced death signaling strategy rapidly predicts cancer response to chemotherapy. Cell 160, 977-989 (2015); Daniels, V. W. et al. Metabolic perturbations sensitize triple-negative breast cancers to apoptosis induced by BH3 mimetics. Sci.
Dynamic BH3 profiling and peptides for use therein are described, for example, in Certo, et al., “Mitochondria primed by death signals determine cellular addiction to antiapoptotic BCL-2 family members,” Cancer Cell, 9:351-365 (2006); and in Foight, et al. “Designed BH3 Peptides with High Affinity and Specificity for Targeting Mcl-1 in Cells,” ACS Chemical Biology, 9:1962-1968 (2014), the disclosures of which are incorporated herein by reference in their entireties for all purposes. The DBP assay enables one to compare the response of a patient tumor sample to a specific drug relative to other drugs and relative to an inert control (e.g., DMSO).
To address the challenge of selecting a proper treatment for a chronic lymphocytic leukemia, experiments were undertaken to optimize high-throughput dynamic BH3 profiling (HT-DBP) for evaluation of the drug sensitivities of CLL samples (FIGS. 1, 13, 5A, 5B, 6A, 6B, and 7A-7C).

[1] = peptide PUMA 1 uM, feature EC-m2
[2] = peptide PUMA 1 uM, feature loss_6q21
[3] = peptide BAD 0.3 uM, feature EC-i
[4] = peptide BAD 0.3 uM, feature loss_1q42.13
[5] = peptide BAD 0.3 uM, feature loss_7p22.2
[6] = peptide BAD 0.3 uM, feature loss_14q32.12
[7] = peptide BAD 0.3 uM, feature loss_16p11.2
[8] = peptide MS1 2.5 uM, feature CNOT3
[9] = peptide PUMA 1 uM, feature loss_7p22.2
[10] = peptide BIM 0.01 uM, feature EC-m2
[11] = peptide BIM 0.01 uM, feature loss_17q23.1
[12] = peptide MS1 2.5 uM, feature ITIH2
[13] = peptide BIM 0.01 uM, feature FBXW7
[14] = peptide BIM 0.01 uM, feature gain_19p13.3
[15] = peptide MS1 2.5 uM, feature BIRC3
[16] = peptide MS1 2.5 uM, feature loss_9p21.3
[17] = peptide MS1 2.5 uM, feature loss_17q11.2
[18] = peptide PUMA 1 uM, feature gain_7q22.1
[19] = peptide PUMA 1 uM, feature loss_14q32.12

In the case of `Cc1c(-c2ccc(N3CCc4cccc(C(=O)Nc5nc6ccccc6s5)c4C3)nc2C(=O)O)cnn1CC12CC3CC(CC(C3)C1)C2` [A-1331852], the direction (Feature EC-m2) is reported as “Resistant”, the direction (peptide BAD 0.3 uM, feature CNOT3) is reported as “Sensitive” and the direction (peptide BIM 0.01 uM, feature CARD11) is reported as “Resistant”. For the same compound, the direction (peptide BIM 0.01 uM, feature EC-u2) was “Sensitive”, the direction (peptide BIM 0.01 uM, feature MYD88) was “Resistant” and the direction (peptide PUMA 1 uM, feature CNOT3) was “Sensitive”. For the same compound, the direction [1] was “Resistant” and the direction [2] was “Resistant”.
In the case of `Cc1c2c(nn1C)CSCc1cc(n(C)n1)CSc1cc(c3ccccc3c1)OCCCc1c(C(=O)O)n(C)c3c-2c(Cl)ccc13` [AZD5991], the direction (Feature EC-i) is reported as “Sensitive”, the direction (Feature loss_3p13) is reported as “Sensitive” and the direction [3] is reported as “Sensitive”. The direction (peptide BAD 0.3 uM, feature POT1) was “Sensitive”, the direction [4] was “Sensitive” and the direction [5] was “Sensitive”. For the same compound, the direction [6] was “Sensitive”, the direction [7] was “Sensitive” and the direction (peptide BIM 0.01 uM, feature ANK1) was “Sensitive”. The direction (peptide BIM 0.01 uM, feature loss_1p36.11) was “Sensitive”, the direction (peptide BIM 0.01 uM, feature loss_3p13) was “Sensitive” and the direction (peptide BIM 0.01 uM, feature loss_15q26.1) was “Sensitive”. For the same compound, the direction (peptide BIM 0.01 uM, feature loss_18q21.2) was “Sensitive”, the direction [8] was “Sensitive” and the direction (peptide PUMA 1 uM, feature BIRC3) was “Sensitive”. For the same compound, the direction (peptide PUMA 1 uM, feature EC-i) was “Sensitive”, the direction (peptide PUMA 1 uM, feature loss_1q42.13) was “Sensitive” and the direction [9] was “Sensitive”. The direction (peptide PUMA 1 uM, feature loss_9p21.3) was “Sensitive”, the direction (peptide PUMA 1 uM, feature loss_16p11.2) was “Sensitive” and the direction (peptide PUMA 1 uM, feature loss_17q11.2) was “Sensitive”.
In the case of `COc1ccc(-c2ccc3c(N4CCOC[C@@H]4C)nc(N4CCOC[C@@H]4C)nc3n2)cc1CO` [AZD8055], the direction (peptide MS1 2.5 uM, feature IGLV321_R110) is reported as “Resistant”, the direction (peptide MS1 2.5 uM, feature NOTCH1) is reported as “Resistant” and the direction (peptide MS1 2.5 uM, feature RPS15) is reported as “Resistant”. The direction (peptide MS1 2.5 uM, feature loss_1p36.11) was “Resistant”, the direction (peptide MS1 2.5 uM, feature loss_3p13) was “Resistant” and the direction (peptide MS1 2.5 uM, feature loss_6q) was “Resistant”. The direction (peptide MS1 2.5 uM, feature loss_18q21.2) was “Resistant”.
For `CN(C)Cc1c(C(=O)NCCOc2ccc(C(=O)NO)cc2)oc2ccccc12` [Abexinostat], the drug-induced apoptotic priming (across CLL subtypes, 65 primary CLL samples, 20 hours drug) was “high priming”, the “efficacy by DBP response” value (cases where patients would be likely resistant to Nutlin 3, MK-2206 and Zanubrutinib) was “effective” and the direction (peptide BAD 0.3 uM, feature EC-m2) was “Sensitive”. For the same compound, the direction (peptide BIM 0.01 uM, feature CNOT3) was “Sensitive”, the direction [10] was “Sensitive” and the direction [11] was “Sensitive”. For the same compound, the direction (peptide BIM 0.01 uM, feature priortrt_Post) was “Sensitive”, the direction (peptide MS1 2.5 uM, feature FBXW7) was “Sensitive” and the direction [12] was “Sensitive”. For the same compound, the direction (peptide MS1 2.5 uM, feature priortrt_Post) was “Sensitive”, the direction [1] was “Sensitive” and the direction [2] was “Sensitive”. The direction (peptide PUMA 1 uM, feature loss_17q23.1) was “Sensitive”.
`CC(C)c1c(C(=O)Nc2ccccc2)c(-c2ccccc2)c(-c2ccc(F)cc2)n1CC[C@@H](O)C[C@@H](O)CC(=O)O` [Atorvastatin] was tested, and the direction (peptide BAD 0.3 uM, feature EC-u1) was “Sensitive”, the direction (peptide BAD 0.3 uM, feature FBXW7) was “Sensitive” and the direction (peptide BAD 0.3 uM, feature M-CLL) was “Resistant”. For the same compound, the direction (peptide BAD 0.3 uM, feature RFX7) was “Sensitive”, the direction (peptide BAD 0.3 uM, feature U-CLL) was “Sensitive” and the direction (peptide BAD 0.3 uM, feature ZMYM3) was “Sensitive”. The direction (peptide BAD 0.3 uM, feature gain_19p13.3) was “Sensitive”, the direction (peptide BAD 0.3 uM, feature m-CLL) was “Resistant” and the direction (peptide BAD 0.3 uM, feature n-CLL) was “Sensitive”. For the same compound, the direction (peptide BIM 0.01 uM, feature EC-u1) was “Resistant”, the direction [13] was “Resistant” and the direction (peptide BIM 0.01 uM, feature RFX7) was “Resistant”. For the same compound, the direction (peptide BIM 0.01 uM, feature ZMYM3) was “Resistant”, the direction [14] was “Resistant” and the direction (peptide BIM 0.01 uM, feature loss_2q31.1) was “Resistant”. The direction (peptide BIM 0.01 uM, feature loss_10p12.2) was “Resistant”, the direction (peptide BIM 0.01 uM, feature loss_10q24.2) was “Resistant” and the direction (peptide BIM 0.01 uM, feature n-CLL) was “Resistant”. The direction (peptide MS1 2.5 uM, feature RFX7) was “Resistant”, the direction (peptide MS1 2.5 uM, feature ZMYM3) was “Resistant” and the direction (peptide MS1 2.5 uM, feature loss_2q31.1) was “Resistant”. For the same compound, the direction (peptide MS1 2.5 uM, feature loss_10p12.2) was “Resistant”, the direction (peptide MS1 2.5 uM, feature loss_10q24.2) was “Resistant” and the direction (peptide MS1 2.5 uM, feature loss_11q22.3) was “Resistant”. For the same compound, the direction (peptide MS1 2.5 uM, feature n-CLL) was “Resistant”, the direction (peptide PUMA 1 uM, feature FBXW7) was “Resistant” and the direction (peptide PUMA 1 uM, feature RFX7) was “Resistant”. For the same compound, the direction (peptide PUMA 1 uM, feature ZMYM3) was “Resistant”, the direction (peptide PUMA 1 uM, feature gain_16p11.2) was “Resistant” and the direction (peptide PUMA 1 uM, feature loss_2q31.1) was “Resistant”. The direction [9] was “Resistant” and the direction (peptide PUMA 1 uM, feature loss_10p12.2) was “Resistant”.
For `Nc1ncn([C@@H]2O[C@H](CO)[C@@H](O)[C@H]2O)c(=O)n1` [Azacitidine], the direction (Feature CARD11) was “Sensitive”, the direction (peptide BAD 0.3 uM, feature CARD11) was “Sensitive” and the direction (peptide BAD 0.3 uM, feature MYD88) was “Sensitive”. The direction (peptide BAD 0.3 uM, feature loss_19p13.11) was “Sensitive”, the direction (peptide BIM 0.01 uM, feature BIRC3) was “Resistant” and the direction [13] was “Resistant”. The direction (peptide BIM 0.01 uM, feature ITIH2) was “Resistant”, the direction [14] was “Resistant” and the direction (peptide BIM 0.01 uM, feature loss_9p21.3) was “Resistant”. For the same compound, the direction (peptide BIM 0.01 uM, feature loss_17q11.2) was “Resistant”, the direction [15] was “Sensitive” and the direction [12] was “Sensitive”. The direction [16] was “Sensitive”, the direction [17] was “Sensitive” and the direction (peptide MS1 2.5 uM, feature loss_19p13.11) was “Sensitive”. The direction (peptide PUMA 1 uM, feature CARD11) was “Sensitive”.
In the case of `Cn1c(CCCC(=O)O)nc2cc(N(CCCl)CCCl)ccc21` [Bendamustine], the direction (Feature loss_5p15.33) is reported as “Sensitive”, the direction (Feature loss_7p22.2) is reported as “Sensitive” and the direction (Feature loss_12p13.31a) is reported as “Sensitive”. For the same compound, the direction (Feature loss_14q32.12) was “Sensitive”, the direction [3] was “Sensitive” and the direction [4] was “Sensitive”. The direction (peptide BAD 0.3 uM, feature loss_5p15.33) was “Sensitive”, the direction [5] was “Sensitive” and the direction (peptide BAD 0.3 uM, feature loss_12p13.31a) was “Sensitive”. The direction [6] was “Sensitive”, the direction [7] was “Sensitive” and the direction [15] was “Sensitive”. For the same compound, the direction [8] was “Sensitive”, the direction [16] was “Sensitive” and the direction [17] was “Sensitive”. The direction [18] was “Sensitive” and the direction [19] was “Sensitive”.
`CC(C)C[C@H](NC(=O)[C@H](CCc1ccccc1)NC(=O)CN1CCOCC1)C(=O)N[C@@H](Cc1ccccc1)C(=O)N[C@@H](CC(C)C)C(=O)[C@@]1(C)CO1` [Carfilzomib] was tested, and the direction [10] was “Sensitive”, the direction [11] was “Sensitive” and the direction (peptide PUMA 1 uM, feature MYD88) was “Sensitive”. For the same compound, the direction [18] was “Sensitive”, the direction (peptide PUMA 1 uM, feature i-CLL) was “Sensitive” and the direction (peptide PUMA 1 uM, feature loss_3p21.31) was “Sensitive”. For the same compound, the direction [19] was “Sensitive”.
